# Assay results: patent publication US20250325485A1, “STABLE COMPOSITIONS OF FOXY-5 HEXAPEPTIDE WITH HIGH SOLUBILITY” (WNTRESEARCH AB, priority 2021, published 2025)
# Counter-ions that a name gives are not always drawn. Peptide text beside a SMILES is read from it. * marks the point of attachment. For = O=C*
# Assay: Conversion of Foxy-5 to mono-, di- and tri-sodium salts
# Type: physicochemical
# Conditions: aqueous slurry of Foxy-5 25 g/L
# Method: As Foxy-5 contains three carboxylic groups (Asp^2, Glu^5, and the C-terminal carboxylic acids), the mono, di, and tri-sodium salts were generated by treating aqueous slurries of Foxy-5 (25 g/L) with 1 eq., 2 eq. and 3 eq. of sodium hydroxide. As starting material, a batch of Foxy-5 free acid containing very low amounts of two known impurities, the aspartimide (<0.1%) and the dimer, (<0.1%) was used (structures, see FIG. 2).
# The di-sodium salt could be completely dissolved within 10 minutes after addition of NaOH (2 eq., pH=4.57). […] After lyophilization, 0.07% dimer and 0.79% aspartimide were detected.
# The tri-sodium salt dissolved within 5 minutes after addition of NaOH (3 eq., pH=6.76) with minimal increase of the aspartimide impurity, but increased formation of the dimer was observed. After lyophilization, 0.41% dimer and 0.17% of the aspartimide were detected.
row,Structure (SMILES),time to complete dissolution after addition of NaOH
1,CSCC[C@H](NC=O)C(=O)N[C@@H](CC(=O)O)C(=O)NCC(=O)N[C@@H](CS)C(=O)N[C@@H](CCC(=O)O)C(=O)N[C@@H](CC(C)C)C(=O)O [di-sodium salt] (For-MDGCEL-OH),≤ 10 min

# Same assay, conditions: aqueous slurry of Foxy-5 25 g/L; 1 eq. NaOH, pH=3.84
row,Structure (SMILES),dissolution after NaOH addition
1,CSCC[C@H](NC=O)C(=O)N[C@@H](CC(=O)O)C(=O)NCC(=O)N[C@@H](CS)C(=O)N[C@@H](CCC(=O)O)C(=O)N[C@@H](CC(C)C)C(=O)O [mono-sodium salt] (For-MDGCEL-OH),could not be completely dissolved

# Same assay, conditions: starting material aspartimide <0.1%; HPLC
row,Structure (SMILES),aspartimide detected after lyophilization
1,CSCC[C@H](NC=O)C(=O)N[C@@H](CC(=O)O)C(=O)NCC(=O)N[C@@H](CS)C(=O)N[C@@H](CCC(=O)O)C(=O)N[C@@H](CC(C)C)C(=O)O [di-sodium salt] (For-MDGCEL-OH),0.79%

# Same assay, conditions: starting material dimer <0.1%; HPLC
row,Structure (SMILES),dimer detected after lyophilization
1,CSCC[C@H](NC=O)C(=O)N[C@@H](CC(=O)O)C(=O)NCC(=O)N[C@@H](CS)C(=O)N[C@@H](CCC(=O)O)C(=O)N[C@@H](CC(C)C)C(=O)O [di-sodium salt] (For-MDGCEL-OH),0.07%

# Assay: FIG. 10
# Conditions: not given
# Method: Table printed on a drawing sheet, FIG. 10
# The patent's description of the figure: FIG. 10
# First reader's note: Storage stability of Foxy-5 free acid and its salts shown as HPLC purity and impurity levels (Ala, aspartimide, dimer) initially and after 2 and 4 weeks at 40°C; decimal commas as printed.
Structure (SMILES),After 2 weeks @ 40°C | Ala (area%),After 2 weeks @ 40°C | Aspartimide (area%),After 2 weeks @ 40°C | Dimer (area%),After 2 weeks @ 40°C | HPLC purity (area%),After 4 weeks @ 40°C | Ala (area%),After 4 weeks @ 40°C | Aspartimide (area%),After 4 weeks @ 40°C | Dimer (area%),After 4 weeks @ 40°C | HPLC purity (area%)
CSCC[C@H](NC=O)C(=O)N[C@@H](CC(=O)O)C(=O)NCC(=O)N[C@@H](CS)C(=O)N[C@@H](CCC(=O)O)C(=O)N[C@@H](CC(C)C)C(=O)O [TRO Di salt] (For-MDGCEL-OH),0 area%,"2,75 area%","0,00 area%","96,51 area%","0,00 area%","4,20 area%","0,60 area%","93,87 area%"
CSCC[C@H](NC=O)C(=O)N[C@@H](CC(=O)O)C(=O)NCC(=O)N[C@@H](CS)C(=O)N[C@@H](CCC(=O)O)C(=O)N[C@@H](CC(C)C)C(=O)O [NH3 Tri salt] (For-MDGCEL-OH),0 area%,"4,10 area%","2,95 area%","88,64 area%","0,00 area%","3,88 area%","3,37 area%","86,45 area%"
CSCC[C@H](NC=O)C(=O)N[C@@H](CC(=O)O)C(=O)NCC(=O)N[C@@H](CS)C(=O)N[C@@H](CCC(=O)O)C(=O)N[C@@H](CC(C)C)C(=O)O [NMG Di salt] (For-MDGCEL-OH),0 area%,"3,85 area%","0,93 area%","93,22 area%","0,00 area%","6,17 area%","0,81 area%","91,23 area%"
CSCC[C@H](NC=O)C(=O)N[C@@H](CC(=O)O)C(=O)NCC(=O)N[C@@H](CS)C(=O)N[C@@H](CCC(=O)O)C(=O)N[C@@H](CC(C)C)C(=O)O [NH3 Di salt] (For-MDGCEL-OH),0 area%,"4,45 area%","0,38 area%","92,27 area%","0,00 area%","5,52 area%","0,27 area%","89,75 area%"
CSCC[C@H](NC=O)C(=O)N[C@@H](CC(=O)O)C(=O)NCC(=O)N[C@@H](CS)C(=O)N[C@@H](CCC(=O)O)C(=O)N[C@@H](CC(C)C)C(=O)O [LYS Tri salt] (For-MDGCEL-OH),"4,25 area%","1,10 area%","1,80 area%","92,29 area%","8,45 area%","1,26 area%","3,40 area%","84,97 area%"
CSCC[C@H](NC=O)C(=O)N[C@@H](CC(=O)O)C(=O)NCC(=O)N[C@@H](CS)C(=O)N[C@@H](CCC(=O)O)C(=O)N[C@@H](CC(C)C)C(=O)O [Na Tri salt] (For-MDGCEL-OH),"13,4 area%","0,53 area%","13,20 area%","68,15 area%","14,70 area%","0,30 area%","16,80 area%","60,34 area%"
CSCC[C@H](NC=O)C(=O)N[C@@H](CC(=O)O)C(=O)NCC(=O)N[C@@H](CS)C(=O)N[C@@H](CCC(=O)O)C(=O)N[C@@H](CC(C)C)C(=O)O [DEA Di salt] (For-MDGCEL-OH),0 area%,"4,98 area%","1,18 area%","92,88 area%","0,25 area%","7,50 area%","3,10 area%","87,11 area%"
CSCC[C@H](NC=O)C(=O)N[C@@H](CC(=O)O)C(=O)NCC(=O)N[C@@H](CS)C(=O)N[C@@H](CCC(=O)O)C(=O)N[C@@H](CC(C)C)C(=O)O [TRO Tri salt] (For-MDGCEL-OH),0 area%,"8,24 area%","0,63 area%","87,27 area%","0,00 area%","11,40 area%","1,28 area%","78,60 area%"
CSCC[C@H](NC=O)C(=O)N[C@@H](CC(=O)O)C(=O)NCC(=O)N[C@@H](CS)C(=O)N[C@@H](CCC(=O)O)C(=O)N[C@@H](CC(C)C)C(=O)O [NMG Tri salt] (For-MDGCEL-OH),0 area%,"1,76 area%","1,13 area%","95,97 area%","0,00 area%","3,06 area%","0,82 area%","95,14 area%"
CSCC[C@H](NC=O)C(=O)N[C@@H](CC(=O)O)C(=O)NCC(=O)N[C@@H](CS)C(=O)N[C@@H](CCC(=O)O)C(=O)N[C@@H](CC(C)C)C(=O)O [HIS Tri salt] (For-MDGCEL-OH),0 area%,"1,97 area%","1,10 area%","96,41 area%","0,00 area%","2,43 area%","0,90 area%","95,32 area%"
CSCC[C@H](NC=O)C(=O)N[C@@H](CC(=O)O)C(=O)NCC(=O)N[C@@H](CS)C(=O)N[C@@H](CCC(=O)O)C(=O)N[C@@H](CC(C)C)C(=O)O [DEA Tri salt] (For-MDGCEL-OH),"1,91 area%","5,78 area%","8,10 area%","82,51 area%","1,82 area%","7,20 area%","5,80 area%","80,92 area%"
CSCC[C@H](NC=O)C(=O)N[C@@H](CC(=O)O)C(=O)NCC(=O)N[C@@H](CS)C(=O)N[C@@H](CCC(=O)O)C(=O)N[C@@H](CC(C)C)C(=O)O [LYS Di salt] (For-MDGCEL-OH),0 area%,"2,50 area%","0,00 area%","97,06 area%","0,47 area%","2,80 area%","0,55 area%","95,17 area%"
CSCC[C@H](NC=O)C(=O)N[C@@H](CC(=O)O)C(=O)NCC(=O)N[C@@H](CS)C(=O)N[C@@H](CCC(=O)O)C(=O)N[C@@H](CC(C)C)C(=O)O [Foxy-5 free acid] (For-MDGCEL-OH),0 area%,"0,75 area%","0,00 area%","98,40 area%","0,00 area%","0,80 area%","0,00 area%","98,21 area%"
CSCC[C@H](NC=O)C(=O)N[C@@H](CC(=O)O)C(=O)NCC(=O)N[C@@H](CS)C(=O)N[C@@H](CCC(=O)O)C(=O)N[C@@H](CC(C)C)C(=O)O [HIS Di salt] (For-MDGCEL-OH),0 area%,"1,97 area%","0,00 area%","97,40 area%","0,00 area%","2,40 area%","0,00 area%","96,52 area%"
